We go through five molecules from PMC8620242 (Journal of Advanced Research, 2021).

Data set [1] is described as follows: in vivo. Details: species or system rats. As to conditions: male, Sprague-Dawley, rat, po, 40 mg/kg.
Data set [2] addresses RBD of SARS-CoV-2 spike protein (Severe acute respiratory syndrome coronavirus 2, UniProt P0DTC2). Nature of the data set: biochemical. It is filed as binding.
The target in data set [3] is nsp8 (Severe acute respiratory syndrome coronavirus 2, UniProt P0DTD1). Nature of the data set: biochemical. Format: binding, SARS-CoV-2.
For data set [4] the following is noted: male, Sprague-Dawley, rat, in vivo.
Data set [5] has as its target SARS-CoV-2 spike protein (Severe acute respiratory syndrome coronavirus 2, UniProt P0DTC2). Nature of the data set: biochemical. Format: binding.
A short description of data set [6]: in vivo. Conditions: male, Sprague-Dawley, rat, po, 40 mg/kg.
Data set [7] has as its system SARS-CoV-2 pseudovirus. Format: cell-based.
The target in data set [8] is nsp7 (Severe acute respiratory syndrome coronavirus 2, UniProt P0DTD1). Nature of the data set: biochemical. It is filed as binding, SARS-CoV-2.
The test system of data set [9] is Vero E6 cells. It is filed as cell-based. As to conditions: CCK-8.
The target in data set [10] is ACE2. As to conditions: read-out: KD for binding to ACE2; cited from earlier work.

As to `CC1(C)[C@@H](O)CC[C@]2(C)[C@H]3C(=O)C=C4[C@@H]5C[C@@](C)(C(=O)O)CC[C@]5(C)CC[C@@]4(C)[C@]3(C)CC[C@@H]12` [GA, glycyrrhetinic acid], the Tmax (as a rule, the time from dosing to the highest level) in [1] was 2 h. For the same molecule, the half-life (as a rule, the time needed for the level to fall by half in the phase considered) in data set [1] is 18.2 h; in [6], 9.91 h. Besides, the Kd – broadly, the equilibrium constant for the complex coming apart – in data set [2] was found to be 2.33 µM; in [3], 91.2 µM; in data set [8], 384 µM. The molecule also had a maximum plasma concentration in data set [4] of 5.68 µM. In addition, the midpoint of inhibition in data set [5], the IC50, lay at 10.9 µM. In addition, the inhibition (commonly how much of the control response was suppressed) at 10 µM in [5] (read-out: inhibition rate against SARS-CoV-2 spike protein by ELISA) was found to be 51.9%. In addition, the “inhibitory activity in blocking, attachment and entry procedures” value in [7] is “significant inhibitory activities”.

For `CC1(C)[C@@H](O[C@H]2O[C@H](C(=O)O)[C@@H](O)[C@H](O)[C@H]2O[C@@H]2O[C@H](C(=O)O)[C@@H](O)[C@H](O)[C@H]2O)CC[C@]2(C)[C@H]3C(=O)C=C4[C@@H]5C[C@@](C)(C(=O)O)CC[C@]5(C)CC[C@@]4(C)[C@]3(C)CC[C@@H]12` [GA-gg, glycyrrhizic acid], the “binding to RBD” value in [2] (SPR) was “very weak bindings”. Also, the maximum plasma concentration in data set [4] is recorded as 10.23 µM. Moreover, the “activity in the pseudovirus system” value in [7] is “weak activities”.

In the case of `C=C(C)[C@@H]1CC[C@]2(C(=O)O)CC[C@]3(C)[C@H](CC[C@@H]4[C@@]5(C)CC[C@H](O)C(C)(C)[C@@H]5CC[C@]43C)[C@@H]12` [betulinic acid], the cytotoxicity entry in data set [9] is listed as “remarkable cytotoxicity”. The IC50 (in general, the midpoint of a concentration-inhibition curve) in data set [5] came to 15.1 µM.

Consider `C[C@H]1[C@H](C)CC[C@]2(C(=O)O)CC[C@]3(C)C(=CC[C@@H]4[C@@]5(C)CC[C@H](O)C(C)(C)[C@@H]5CC[C@]43C)[C@H]12` [ursolic acid], for which the cytotoxicity entry in data set [9] was “remarkable cytotoxicity”. In data set [5], this molecule registered an IC50 of 9 µM.

On to dalbavacin, for which, in data set [10], the Kd was 0.147 µM.
